{
  "source": "patent US20060251692A1",
  "about": "“Use of glycol ethers as biodispersants in heating and cooling systems” (priority 2005, published 2006)",
  "system": "biofilms",
  "assay": "pilot site cooling tower (building downtown Montreal) treated with biodispersant, DATS clogging monitor and direct microbiological measurements",
  "data": [
    {"smiles": "COC(C)COC(C)CO", "note": "(stereo not drawn) [dipropylene glycol methyl ether]", "values": [
      {"measurement": "dig out of deposits covering the inside walls of the tower", "setting": "300 ppm in recirculating water, no bactericide", "value": "allowed first the dig out of the deposits"},
      {"measurement": "DATS clogging monitor measurements", "setting": "after few days of treatment", "value": "the measurements were stabilized"},
      {"measurement": "direct measurements of the microbiological activity (bacterial population vs initial state)", "setting": "without any bactericide injection", "value": "downwards stabilization of the bacterial population"}
    ]}
  ]
}
